Assay results as given in patent publication EP3262942A1, “SELENODIARYLS FOR USE AS MICROBICIDE OR AS MEDICINE” (Evonik Degussa GmbH, priority 2016, dated 2018).

What was measured:
Candida albicans = assay: Growth test in microtiter plates, HA medium, 24 h, visual evaluation; assay type: cell-based; design: key: +: kein Wachstum im Vergleich zur Wachstumskontrolle; -: Wachstum wie Wachstumskontrolle
Mucor miehei = assay: as above; assay type: cell-based; design: key to Aktivität gegenüber M. miehei: +: kein Wachstum im Vergleich zur Wachstumskontrolle; -: Wachstum wie Wachstumskontrolle
Penicillium notatum = assay: as above; assay type: cell-based; design: key: +: kein Wachstum im Vergleich zur Wachstumskontrolle; -: Wachstum wie Wachstumskontrolle
Paecilomyces variotii = assay: as above; assay type: cell-based; design: key: +: kein Wachstum im Vergleich zur Wachstumskontrolle; -: Wachstum wie Wachstumskontrolle
M. grisea H2O = assay: microbe, parasite or virus in culture; assay type: cell-based, Magnaporthe grisea; conditions: Pyricularia grisea, H2O, 24 h, read-out: Aktivität gegenüber M. grisea H2O
Botrytis cinerea = assay: microbe, parasite or virus in culture; assay type: cell-based; conditions: Botrytis cinerea, 24 h, read-out: Aktivität gegenüber B. cinerea
P. infestans = assay: microbe, parasite or virus in culture; assay type: cell-based, Phytophthora infestans; conditions: for inhibition of growth at 5 µg/mL / inhibition of growth at 10 µg/mL / inhibition of growth at 25 µg/mL / inhibition of growth at 50 µg/mL: Phytophthora infestans, 24 h, read-out: Aktivität gegenüber P. infestans
M. grisea CM = assay: microbe, parasite or virus in culture; assay type: cell-based, Magnaporthe grisea; conditions: Pyricularia grisea, 24 h, read-out: Aktivität gegenüber M. grisea CM
Lepidium sativum = assay: Crop plant growth test, seeds on filter discs, 4 days, visual evaluation; assay type: in vivo
In short: (§1)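 Compounds dried from DMSO onto filter discs; about 12 seeds per well with 200 µl sterile tap water, incubated 4 days in a humid chamber under 16 h light/8 h dark. Visual scoring: + means at least 75 % growth inhibition versus control, − means less than 75 %.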

Setaria italica = assay: as above; assay type: in vivo
In short: as §1

M. grisea = assay type: cell-based, Magnaporthe grisea; conditions: medium (H2O or CM) not stated
[1] = system: alle getesteten Pathogene; assay type: cell-based; conditions: 5-50 µg/mL

| SMILES | Aktivität gegenüber C. albicans (Candida albicans; 10µg/mL) | Aktivität gegenüber C. albicans (Candida albicans; 50µg/mL) | Aktivität gegenüber M. miehei (Mucor miehei; 10µg/mL) | Aktivität gegenüber M. miehei (Mucor miehei; 50µg/mL) | Aktivität gegenüber P. notatum (Penicillium notatum; 10µg/mL) | Aktivität gegenüber P. notatum (Penicillium notatum; 50µg/mL) | Aktivität gegenüber P. variotii (Paecilomyces variotii; 10µg/mL) | Aktivität gegenüber P. variotii (Paecilomyces variotii; 50µg/mL) | inhibition of growth at 5 µg/mL (M. grisea H2O) [%] | inhibition of growth at 10 µg/mL (M. grisea H2O) [%] | inhibition of growth at 25 µg/mL (M. grisea H2O) [%] | inhibition of growth at 50 µg/mL (M. grisea H2O) [%] | inhibition of growth at 5 µg/mL (Botrytis cinerea) [%] | inhibition of growth at 10 µg/mL (Botrytis cinerea) [%] | inhibition of growth at 25 µg/mL (Botrytis cinerea) [%] | inhibition of growth at 50 µg/mL (Botrytis cinerea) [%] | inhibition of growth at 5 µg/mL (P. infestans) [%] | inhibition of growth at 10 µg/mL (P. infestans) [%] | inhibition of growth at 25 µg/mL (P. infestans) [%] | inhibition of growth at 50 µg/mL (P. infestans) [%] | also measured |
| --- | --- | --- | --- | --- | --- | --- | --- | --- | --- | --- | --- | --- | --- | --- | --- | --- | --- | --- | --- | --- | --- |
| Cc1cc(C)c(O)c([Se]c2cc(C)cc(C)c2O)c1 [Verbindung 12, Bis(3,5-dimethyl-2-hydroxyphenyl)selen] | - | - | - | - | - | - | - | - | 0 to 25 | 0 to 25 | 0 to 25 | 0 to 25 | 0 to 25 | 0 to 25 | 0 to 25 | 0 to 25 | 0 to 25 | > 75 | > 75 | > 75 | inhibition of growth at 5 µg/mL (M. grisea CM): > 75%; inhibition of growth at 10 µg/mL (M. grisea CM): > 75%; inhibition of growth at 25 µg/mL (M. grisea CM): > 75%; inhibition of growth at 50 µg/mL (M. grisea CM): > 75%; Aktivität gegenüber Nutzpflanzen: L. sativum (Lepidium sativum; 10µg/R): - (weniger als 75 % Wachstumshemmung im Vergleich zur Kontrolle); Aktivität gegenüber Nutzpflanzen: L. sativum (Lepidium sativum; 20µg/R): - (weniger als 75 % Wachstumshemmung im Vergleich zur Kontrolle); Aktivität gegenüber Nutzpflanzen: L. sativum (Lepidium sativum; 50µg/R): - (weniger als 75 % Wachstumshemmung im Vergleich zur Kontrolle); Aktivität gegenüber Nutzpflanzen: S. italica (Setaria italica; 10µg/R): - (weniger als 75 % Wachstumshemmung im Vergleich zur Kontrolle); Aktivität gegenüber Nutzpflanzen: S. italica (Setaria italica; 20µg/R): - (weniger als 75 % Wachstumshemmung im Vergleich zur Kontrolle); Aktivität gegenüber Nutzpflanzen: S. italica (Setaria italica; 50µg/R): - (weniger als 75 % Wachstumshemmung im Vergleich zur Kontrolle); Aktivität gegenüber M. grisea (M. grisea): hohe Aktivität |
| Cc1cc(C(C)(C)C)cc([Se]c2cc(C(C)(C)C)cc(C)c2O)c1O [Verbindung 13, Di(5-tert-butyl-2-hydroxy-3-methylphenyl)selen] | - | - | - | - | - | - | - | - | > 75 | > 75 | > 75 | > 75 | 0 to 25 | 0 to 25 | 0 to 25 | 0 to 25 | 0 to 25 | 0 to 25 | 0 to 25 | 0 to 25 | inhibition of growth at 5 µg/mL (M. grisea CM): > 75%; inhibition of growth at 10 µg/mL (M. grisea CM): > 75%; inhibition of growth at 25 µg/mL (M. grisea CM): > 75%; inhibition of growth at 50 µg/mL (M. grisea CM): > 75%; Aktivität gegenüber Nutzpflanzen: L. sativum (Lepidium sativum; 10µg/R): - (weniger als 75 % Wachstumshemmung im Vergleich zur Kontrolle); Aktivität gegenüber Nutzpflanzen: L. sativum (Lepidium sativum; 20µg/R): - (weniger als 75 % Wachstumshemmung im Vergleich zur Kontrolle); Aktivität gegenüber Nutzpflanzen: L. sativum (Lepidium sativum; 50µg/R): - (weniger als 75 % Wachstumshemmung im Vergleich zur Kontrolle); Aktivität gegenüber Nutzpflanzen: S. italica (Setaria italica; 10µg/R): - (weniger als 75 % Wachstumshemmung im Vergleich zur Kontrolle); Aktivität gegenüber Nutzpflanzen: S. italica (Setaria italica; 20µg/R): - (weniger als 75 % Wachstumshemmung im Vergleich zur Kontrolle); Aktivität gegenüber Nutzpflanzen: S. italica (Setaria italica; 50µg/R): - (weniger als 75 % Wachstumshemmung im Vergleich zur Kontrolle); Aktivität gegenüber M. grisea (M. grisea): hohe Aktivität |
| COc1cc(OC)c([Se]c2cc(OC)c(OC)cc2OC)cc1OC [Verbindung 26, Bis(2,4,5-trimethoxyphenyl)selen] | - | - | - | + | - | - | - | - | 25 to 50 | > 75 | > 75 | > 75 | 0 to 25 | 0 to 25 | 0 to 25 | 0 to 25 | 0 to 25 | 0 to 25 | 0 to 25 | 0 to 25 | Aktivität im Wachstumstest mit M. miehei (Mucor miehei; […]): mikrobizide Wirksamkeit; Wirksamkeit gegenüber P. infestans (P. infestans; […]): keine Wirkung; inhibition of growth at 5 µg/mL (M. grisea CM): 25 to 50%; inhibition of growth at 10 µg/mL (M. grisea CM): > 75%; inhibition of growth at 25 µg/mL (M. grisea CM): > 75%; inhibition of growth at 50 µg/mL (M. grisea CM): > 75%; Aktivität gegenüber Nutzpflanzen: L. sativum (Lepidium sativum; 10µg/R): - (weniger als 75 % Wachstumshemmung im Vergleich zur Kontrolle); Aktivität gegenüber Nutzpflanzen: L. sativum (Lepidium sativum; 20µg/R): - (weniger als 75 % Wachstumshemmung im Vergleich zur Kontrolle); Aktivität gegenüber Nutzpflanzen: L. sativum (Lepidium sativum; 50µg/R): - (weniger als 75 % Wachstumshemmung im Vergleich zur Kontrolle); Aktivität gegenüber Nutzpflanzen: S. italica (Setaria italica; 10µg/R): - (weniger als 75 % Wachstumshemmung im Vergleich zur Kontrolle); Aktivität gegenüber Nutzpflanzen: S. italica (Setaria italica; 20µg/R): - (weniger als 75 % Wachstumshemmung im Vergleich zur Kontrolle); Aktivität gegenüber Nutzpflanzen: S. italica (Setaria italica; 50µg/R): - (weniger als 75 % Wachstumshemmung im Vergleich zur Kontrolle); Aktivität im Wachstums- und Keimungshemmungstest gegen die getesteten Pathogene [1]: fungizider Effekt |
